“Also recorded” adds a separate entry of the source.
What was measured:
Format in all cases: cell-based
caspase 3/7 [1] = assay: Caspase-Glo 3/7 assay, Namalwa cells
Protocol: (§1) Caspase-glo® assay (Promega) was conducted following the manufacturer's recommendations. Cells were seeded at a density of 5000 cells/well in a white 96 well plates (Corning, #3917) in a total volume of 100 μl with respective monomers, combinations of BRD ligands together with E3 ligase ligands or vehicle control treatment. After a 24 h incubation, 100 μl of the […] substrate was added per well and luminescence was read on a Spectramax M5 (Molecular Devices).
Namalwa cells (5×104) were treated for 24 hours with the compounds solubilized in DMSO. FIG. 57 is a bar graph depiction of fold increase of apoptosis assessed via caspase 3/7 activity using the Caspase-glo assay (Promega) described above.
(§2) Molm-13 (FIG. 76A) or Namalwa (FIG. 76B) cells (5×10^4) were treated for 24 hours with the compounds solubilized in DMSO in white 96 well plates (10 nM-10 μM solubilized in DMSO). FIG. 76 is a bar graph depiction of fold increase of apoptosis assessed via caspase 3/7 activity using the Caspase-glo assay (Promega) described above.

caspase 3/7 [2] = assay: Caspase-Glo 3/7 assay, Molm-13 cells
Protocol: as §1, §2

BRD4 [3] = target: T1, BRD4 (Homo sapiens, UniProt O60885); assay: CURE-PRO-mediated BRD4 degradation with VHL ligands, WES (ProteinSimple), MCF7 cells; design: endogenous in cells
Protocol: (§3) All cell lines were purchased from ATCC or DSMZ and grown at 37° C. with 5% CO2. Human HeLa cells were cultured in complete growth medium (Dulbecco's modified Eagle's medium (DMEM) supplemented with 10% FBS); MCF7 cells were cultured in complete growth medium (Dulbecco's modified Eagle's medium (DMEM) supplemented with 10% FBS and 0.01 mg/ml human recombinant insulin (Sigma Aldrich); Namalwa and MOLM-13 cells were cultured in complete growth medium (RPMI 1640 medium supplemented with 10% FBS); MV-4-11 were cultured in complete growth medium (Iscove's Modified Dulbecco's medium, supplemented with 10% FBS); HCT116 cells were cultured in complete growth medium (McCoy's 5a Medium supplemented with 10% FBS). For cellular degradation of BRD4 studies, cells were seeded in a 12-well plate at 70-80% confluency, allowed to attach overnight, and incubated with the indicated compounds for the indicated time. When indicated, a 15-minute pretreatment with 10 μM pomalidomide, 10 μM VHL298, 10 μM Nutlin3a, 1 μM MG-132 or 1 μM Carfilzomib was performed before the addition of CURE-PROs. For washout studies, after CURE-PRO treatment, media was aspirated and incubated with complete medium for the indicated time before lysis.
WES Simple analysis was performed on WES system (ProteinSimple-Biotechne) according to the manufacturer's instructions. Total protein concentrations of cell lysates were determined by the Pierce BCA kit (Thermo Fisher). 3 μL of 0.3 μg/μL of the protein lysate was loaded onto a 12- to 230-kDa WES assay plate (ProteinSimple) where 300 nL sample was withdrawn through a capillary, subjected to electrophoretic separation of proteins by size, and followed by the simultaneous, HRP-based detection of proteins using the Anti-Rabbit Detection Module (Proteinsimple: #DM-001). The electropherograms were checked then the automatic peak detection was manually corrected if it was required.
MCF7 cells (3×10^6) were treated for 4-24 hours continually (FIG. 72), or treated for 4h, washed and incubated for a further 4-24 h with the compounds solubilized in DMSO. Compounds were added at 10 μM each. Cells were washed, lysed, and clarified by centrifugation. The total protein concentration was quantified by the BCA method (ThermoFisher Sciences). Standardized protein samples were electrophoresed and imaged as described in the WES Proteinsimple section above. FIG. 69 depicts the CURE-PRO-mediated BRD4 degradation for the BRD-E50 monomer, and VHL ligand, 8305.
MCF7 cells (3×10^6) were treated for 24 hours with the compounds solubilized in DMSO. CURE-PRO monomers were added at 10 μM each and the proteasomal inhibitors at 1 μM. Standardized protein samples were electrophoresed and imaged as described in the WES Proteinsimple section above. FIGS. 73 and 75 depicts the dependence of the proteasome for CURE-PRO-mediated BRD4 degradation.
MCF7 cells (3×10^6) were treated for 24 hours with the compounds solubilized in DMSO. CURE-PRO monomers were added at 10 μM. FIG. 74 depicts the CURE-PRO-mediated BRD4 degradation for the BRD-E50 monomer, and VHL ligand, 8305 combined in a 1:1 ratio after 24 h.

BRD4 [4] = target: T1, BRD4; assay: CURE-PRO-mediated BRD4 degradation with VHL ligands, Western blot, MCF7 cells; design: endogenous in cells; conditions: MCF7, 24 h
Protocol: as §3
HeLa, MCF7, or HCT116 cells (2.5-3×10^6) were treated for 24 hours with the indicated compounds solubilized in DMSO. The cells were washed in ice-cold PBS and were then lysed in RIPA lysis buffer (150 mM NaCl, 5 mM EDTA, 1% NP-40, 0.5% sodium deoxycholate, 0.1% SDS, 50 mM Tris, pH 8.0.) with Roche protease inhibitor complete cocktail and phosphatase inhibitors (10 mM sodium fluoride, 10 mM sodium pyrophosphate, 1 mM sodium orthovanadate and 20 mM β-glycerophosphate). The total protein concentrations were determined by Bradford Protein Assay and 10-20 μg of protein was loaded onto 4-15% Tris-Glycine gradient gels (Biorad). After standard gel electrophoresis, the separated proteins were transferred to PVDF membrane by wet transfer. The immunoblots were then blocked for 1 hour in 5% skim milk in TBST or 5% BSA in TBST, according to manufacturer's instructions, before an overnight incubation at 4° C. with indicated antibodies and membranes. Membranes were then incubated with the appropriate horseradish peroxidase-conjugated secondary antibodies (1:5,000 dilution) for 1 h at room temperature and the bands were visualized using the Clarity Max Western ECL Substrate (Biorad) and the ChemiDoc Imaging System (Biorad). Signal was detected with ECL Western Blotting Substrate (Pierce) and X-ray film processed with a Konica SRX-101 X-ray film processor or captured by Bio-Rad's Chemidoc Imaging system.
MCF7 cells (3×10^6) were treated for 24 h with the compounds solubilized in DMSO. Compounds were added at 100 nM-10 μM. […]

Molm-13 cells = assay: CellTiter-Glo cell viability, Molm-13 cells; conditions: Molm-13, 24 and 72 h
Protocol: CellTiter-Glo® 2.0 Cell Viability Assay (Promega) was carried out following the manufacturer's recommendations. Cells were seeded at a density of 1000 cells/well in a white 96 well plates (Corning, #3917) in a total volume of 100 μl with respective monomers, combinations of BRD ligands together with E3 ligase ligands or vehicle control treatment. After a 72 h incubation, 100 ul of the CellTiter-Glo® substrate was added per well and luminescence was read on a Spectramax M5 (Molecular Devices). Dose-response curves were generated using Graphpad Prism software.
Molm-13 cells (1×10^4) were treated for 24 (FIG. 77A) or 72 (FIG. 77B) hours were treated in white 96 well plates with the compounds (10 nM-10 μM solubilized in DMSO). After indicated times cell viability was assessed using the CellTiter-Glo® Luminescent Cell Viability Assay (Promega) and the signal detected on a SpectraMax M5 (Molecular Devices).

BRD4 [5] = target: T1, BRD4; assay: Summary of BRD4 degradation by CURE-PRO pairs, estimated from Western Blot or WES (Proteinsimple); design: endogenous in cells; conditions: Table 3; aromatic 1,2-diol-containing VHL ligand, second drawing (8305)
Description: A black check mark indicates efficacy of 30% to 70% or higher protein degradation.

Q: What does the source list for `CCNC(=O)C[C@@H]1N=C(c2ccc(Cl)cc2)c2cc(B(O)O)ccc2-n2c(C)nnc21` [BRD-E50, ((4S)-6-(4-chlorophenyl)-4-(2-(ethylamino)-2-oxoethyl)-1-methyl-4H-benzo[f][1,2,4]triazolo[4,3-a][1,4]diazepin-8-yl)boronic acid]?
A: Caspase activity, co-treatment with VHL298 (caspase 3/7 [1]): does not increase caspase activity; Caspase 3/7 activation, co-dosed with VHL ligand 8305 (caspase 3/7 [1]; 24 hours, 1:1 with 8305, 10 nM-10 μM): marked caspase activation; also recorded: demonstrates activation of caspase 3/7; Caspase activity, co-treatment with VHL298 (caspase 3/7 [2]; MOLM13): does not increase caspase activity; Caspase 3/7 activation, co-dosed with VHL ligand 8305 (caspase 3/7 [2]; Molm-13, 24 hours, 1:1 with 8305, 10 nM-10 μM): marked caspase activation; also recorded: demonstrates activation of caspase 3/7; BRD4 degradation, monomer alone (WES) (BRD4 [3]; MCF7, 10 μM): no degradation of BRD4; BRD4 degradation, with VHL ligand 8304 (WES) (BRD4 [3]; MCF7, 10 μM each): No degradation is noted; BRD4 degradation, with VHL ligand 8305 (WES) (BRD4 [3]; MCF7, 10 μM each, 1:1 with 8305, 4-24 h, with washout where stated): directs degradation of BRD4 as early as 4 h, with sustained degradation 24 h after wash out; also recorded: marked BRD4 degradation after 4h with sustained degradation for up to 8h after drugs are washed out; BRD4 degradation with 8305 after VHL298 preincubation (BRD4 [3]; MCF7, 24 h, 10 μM): No degradation is noted; BRD4 degradation, with VHL ligand 8304 (Western blot) (BRD4 [4]; 1:1 with 8304, 1-10 μM): but not when VHL ligand 8304 is co-incubated; also recorded: no degradation is noted; BRD4 degradation, with VHL ligand 8305 (Western blot) (BRD4 [4]; 1:1 with 8305, 100 nM-10 μM): there is degradation of BRD4; also recorded: marked BRD4 degradation; Cell viability, co-treatment with VHL298 (Molm-13 cells): decreases levels of cell viability to similar levels of BRD-E50 treatment alone; Loss of cell viability, co-dosed with VHL ligand 8305 (Molm-13 cells; 1:1 with 8305, 10 nM-10 μM): greater loss of cell viability; also recorded: marked loss in cell viability; Degradation of BRD4 in combination with VHL ligand [drawing 397] (BRD4 [5]): ✓ (A black check mark indicates efficacy of 30% to 70% or higher protein degradation)

Source: patent US20230277553A1, “THERAPEUTIC COMPOSITION OF CURE-PRO COMPOUNDS FOR TARGETED DEGRADATION OF BET DOMAIN PROTEINS, AND METHODS OF MAKING AND USAGE” (CORNELL UNIVERSITY, priority 2020, published 2023)
